Marks after values point to notes of the source that are not given here.
What was measured:
human 5-HT1A receptor = biological target: T1, human 5-HT1A receptor (Homo sapiens, UniProt P08908); experiment: 5-HT1A radioligand binding assay; conditions: [3H]-8-OH-DPAT 1 nM; membranes from CHO-K1 cells with human 5-HT1A receptor
T1 construct: purchased PerkinElmer; host or cells: CHO-K1 cells, stably transfected
T1 sequence (P08908 1-422): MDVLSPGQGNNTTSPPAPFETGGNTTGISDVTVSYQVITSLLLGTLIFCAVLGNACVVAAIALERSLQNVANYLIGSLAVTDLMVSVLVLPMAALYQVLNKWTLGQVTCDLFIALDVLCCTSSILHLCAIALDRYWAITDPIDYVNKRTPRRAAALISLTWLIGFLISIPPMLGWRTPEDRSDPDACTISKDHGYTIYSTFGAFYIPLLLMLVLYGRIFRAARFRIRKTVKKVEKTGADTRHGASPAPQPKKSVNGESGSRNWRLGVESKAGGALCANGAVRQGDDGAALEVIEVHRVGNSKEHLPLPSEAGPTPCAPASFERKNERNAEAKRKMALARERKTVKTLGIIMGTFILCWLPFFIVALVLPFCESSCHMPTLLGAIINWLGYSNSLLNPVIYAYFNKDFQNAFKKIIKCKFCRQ
Method: Radioligand binding was performed using membranes from CHO-K1 cells stably transfected with the human 5-HT1A receptor (PerkinElmer, Fremont, CA, USA). All assays were carried out in duplicate. Then, 50 µL working solution of the tested compounds, 50 µL [^3H]-8-OH-DPAT (final concentration 1 nM) and 150 µL diluted membranes (20 µg protein per well) prepared in assay buffer (50 mM Tris, pH 7.4, 10 mM MgSO4, 0.5 mM EDTA, 0.1% ascorbic acid) were transferred to a polypropylene 96-well microplate using 96-wells pipetting station Rainin Liquidator (MettlerToledo, Columbus, OH, USA). […] The reaction was terminated by rapid filtration through GF/B filter mate, presoaked with 0.5% polyethyleneimine for 30 min. Ten rapid washes with 200 µL 50 mM Tris buffer (4 °C, pH 7.4) were performed using an automated harvester system—Harvester-96 MACH III FM (Tomtec, Hamden, CT, USA). […] Data were fitted to a one-site curve-fitting equation with Prism 6 (GraphPad Software, San Diego, CA, USA) and Ki values were estimated from the Cheng–Prusoff equation.

SERT protein = biological target: T2, SERT protein (Rattus norvegicus, UniProt P31652); experiment: SERT radioligand binding assay; conditions: [3H]-citalopram 1.0 nM; rat cortex tissue
T2 construct: from tissue; host or cells: rat cortex
Method: Radioligand binding was performed using rat cortex tissue. All assays were carried out in duplicate. First, 50 µL working solution of the tested compounds, 50 µL [^3H]-citalopram (final concentration 1.0 nM) and 150 µL tissue suspension, prepared in assay buffer (50 mM Tris. pH 7.7; 150 mM NaCl; 5 mM KCl), were transferred to a polypropylene 96-well microplate using 96-wells pipetting station Rainin Liquidator (MettlerToledo). […] The reaction was terminated by rapid filtration through GF/B filter mate presoaked with 0.3% polyethyleneimine for 30 min. Ten rapid washes with 200 µL 50 mM Tris buffer (4 °C, pH 7.7) were performed using an automated harvester system—Harvester-96 MACH III FM (Tomtec). […] Data were fitted to a one-site curve-fitting equation with Prism 6 (GraphPad Software) and Ki values were estimated from the Cheng–Prusoff equation.

5-HT1A receptor = biological target: T3, 5-HT1A receptor (Mus musculus, UniProt Q64264); experiment: Body temperature in mice (induced hypothermia); assay type: in vivo, CD-1 mice; conditions: mice, 5 mg/kg sc
T3 construct: from tissue; host or cells: whole animal, male CD-1 mice
T3 sequence (Q64264 1-421): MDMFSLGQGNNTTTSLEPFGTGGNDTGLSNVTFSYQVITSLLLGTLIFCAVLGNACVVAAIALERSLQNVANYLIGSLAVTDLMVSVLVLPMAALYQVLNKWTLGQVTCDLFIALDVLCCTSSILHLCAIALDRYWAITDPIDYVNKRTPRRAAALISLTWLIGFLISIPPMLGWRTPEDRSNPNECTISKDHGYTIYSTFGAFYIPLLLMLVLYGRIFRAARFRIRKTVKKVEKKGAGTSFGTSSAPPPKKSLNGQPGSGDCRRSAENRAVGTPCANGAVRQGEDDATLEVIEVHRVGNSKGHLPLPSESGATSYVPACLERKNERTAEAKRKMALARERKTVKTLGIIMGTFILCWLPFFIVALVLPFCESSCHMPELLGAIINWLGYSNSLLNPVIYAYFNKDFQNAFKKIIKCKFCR
Method: The experiments were performed on male CD-1 mice (23–40 g). The animals were kept at room temperature (21 ± 2 °C) on a natural day-night cycle (March–October) and housed under standard laboratory conditions. They had free access to food and tap water before the experiment. Each experimental group consisted of 6–8 animals/dose. All the animals were used only once. 8-Hydroxy-2-(di-n-propylamino)tetralin hydro-bromide (8-OH-DPAT, Research Biochemical Inc.) was used as aqueous solution. […] Vehicle group was administered as 10% aqueous solution of dimethyl sulphoxide (DMSO). 8-OH-DPAT was injected subcutaneously (sc); 6a and 7g were given intraperitoneally (ip) in a volume of 10 mL/kg/mice. The obtained data were analyzed by Dunnett’s test (one drug administration) or by the Newman–Keuls test (two drugs administrations). Forced swim test: the obtained data was evaluated by one-way analysis of variance (ANOVA) followed by the Dunnett’s multiple comparisons test: p < 0.05 was considered significant.
The results were expressed as a change in body temperature (Δt) with respect to the basal body temperature, as measured at the beginning of the experiment.

T2 sequence (P31652 whole entry): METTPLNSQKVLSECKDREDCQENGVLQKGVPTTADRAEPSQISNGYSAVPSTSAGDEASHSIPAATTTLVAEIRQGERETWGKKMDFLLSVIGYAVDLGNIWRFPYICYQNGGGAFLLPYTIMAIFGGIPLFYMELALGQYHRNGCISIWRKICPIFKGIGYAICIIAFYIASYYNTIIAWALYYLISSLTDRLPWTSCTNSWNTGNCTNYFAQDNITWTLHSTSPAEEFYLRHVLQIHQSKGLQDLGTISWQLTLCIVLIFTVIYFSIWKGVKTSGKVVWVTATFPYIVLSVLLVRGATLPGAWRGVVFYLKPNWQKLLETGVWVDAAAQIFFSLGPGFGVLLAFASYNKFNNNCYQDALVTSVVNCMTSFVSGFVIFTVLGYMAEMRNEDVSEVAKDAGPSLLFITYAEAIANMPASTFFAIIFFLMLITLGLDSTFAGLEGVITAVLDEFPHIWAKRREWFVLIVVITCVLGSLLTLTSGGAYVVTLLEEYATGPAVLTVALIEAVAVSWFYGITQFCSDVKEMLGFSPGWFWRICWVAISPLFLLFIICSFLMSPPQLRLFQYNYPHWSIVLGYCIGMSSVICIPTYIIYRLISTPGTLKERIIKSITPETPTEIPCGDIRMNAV

Ki (human 5-HT1A receptor) [nM] | Ki (SERT protein) [nM] | melting point [°C] | Structure (SMILES) | Δt ± SEM, body temperature (5-HT1A receptor; 30 min) | Δt ± SEM, body temperature (5-HT1A receptor; 60 min) | Δt ± SEM, body temperature (5-HT1A receptor; 90 min) [°C] | Δt ± SEM, body temperature (5-HT1A receptor; 120 min) [°C]
7 ± 1 | > 5000 | 65 to 70 | COc1ccccc1-c1c(=O)n(CCCCN2CCC(c3noc4cc(F)ccc34)CC2)c(=O)n2ccccc12 [Compound 6c, 4-(2-Methoxphenyl)-2-{4-[4-(6-fluoro-1,2-benzoxazol)-1-piperidyl]butyl}-pyrido[1,2-c]pyrimidine-1,3-dione] | – | – | – | –
17 ± 2 | 342 ± 28.8 | 102 to 107 | O=c1c(-c2ccc(F)cc2)c2ccccn2c(=O)n1CCCCN1CCC(c2noc3cc(F)ccc23)CC1 [Compound 6i, 4-(4-Fluorophenyl)-2-{4-[4-(6-fluoro-1,2-benzoxazol)-1-piperidyl]butyl}-pyrido[1,2-c]pyrimidine-1,3-dione] | – | – | – | –
35 ± 3.5 | > 1000 | – | Cc1ccccc1-c1c2n(c(=O)n(CCCCN3CCC(c4noc5cc(F)ccc45)CC3)c1=O)CCCC2 [Compound 7b, 4-(2-Methylphenyl)-2-{4-[4-(6-fluoro-1,2-benzoxazol)-1-piperidyl]butyl}-5,6,7,8-tetrahydro-pyrido[1,2-c]pyrimidine-1,3-dione] | – | – | – | –
36 ± 4.1 | > 1000 | – | O=c1c(-c2ccccc2F)c2n(c(=O)n1CCCCN1CCC(c3noc4cc(F)ccc34)CC1)CCCC2 [Compound 7e, 4-(2-Fluorophenyl)-2-{4-[4-(6-fluoro-1,2-benzoxazol)-1-piperidyl]butyl}-5,6,7,8-tetrahydro-pyrido[1,2-c]pyrimidine-1,3-dione] | – | – | – | –
52 ± 2.5 | 1770 ± 180 | 107 to 110 | Cc1ccc(-c2c3n(c(=O)n(CCCCN4CCC(c5noc6cc(F)ccc56)CC4)c2=O)CCCC3)cc1 [Compound 7f, 4-(4-Methylphenyl)-2-{4-[4-(6-fluoro-1,2-benzoxazol)-1-piperidyl]butyl}-5,6,7,8-tetrahydro-pyrido[1,2-c]pyrimidine-1,3-dione] | – | – | – | –

Further lines, the compound ahead of its results:

Structure (SMILES) | Ki (human 5-HT1A receptor) [nM] | Ki (SERT protein) [nM] | melting point [°C] | Δt ± SEM, body temperature (5-HT1A receptor; 30 min) | Δt ± SEM, body temperature (5-HT1A receptor; 60 min) | Δt ± SEM, body temperature (5-HT1A receptor; 90 min) [°C] | Δt ± SEM, body temperature (5-HT1A receptor; 120 min) [°C]
Cc1ccccc1-c1c(=O)n(CCCCN2CCC(c3noc4cc(F)ccc34)CC2)c(=O)n2ccccc12 [Compound 6b, 4-(2-Methylphenyl)-2-{4-[4-(6-fluoro-1,2-benzoxazol)-1-piperidyl]butyl}-pyrido[1,2-c]pyrimidine-1,3-dione] | 30 ± 3.5 | > 5000 | 120 to 122 | – | – | – | –
O=c1c(-c2ccccc2F)c2ccccn2c(=O)n1CCCCN1CCC(c2noc3cc(F)ccc23)CC1 [Compound 6e, 4-(2-Fluorophenyl)-2-{4-[4-(6-fluoro-1,2-benzoxazol)-1-piperidyl]butyl}-pyrido[1,2-c]pyrimidine-1,3-dione] | 15 ± 0.6 | > 1000 | 58 to 62 | – | – | – | –
Cc1ccc(-c2c(=O)n(CCCCN3CCC(c4noc5cc(F)ccc45)CC3)c(=O)n3ccccc23)cc1 [Compound 6f, 4-(4-Methylphenyl)-2-{4-[4-(6-fluoro-1,2-benzoxazol)-1-piperidyl]butyl}-pyrido[1,2-c]pyrimidine-1,3-dione] | 74 ± 4 | 772 ± 36 | 158 to 159 | – | – | – | –
COc1ccc(-c2c(=O)n(CCCCN3CCC(c4noc5cc(F)ccc45)CC3)c(=O)n3ccccc23)cc1 [Compound 6g, 4-(4-Methoxyphenyl)-2-{4-[4-(6-fluoro-1,2-benzoxazol)-1-piperidyl]butyl}-pyrido[1,2-c]pyrimidine-1,3-dione] | 10 ± 1.1 | 730 ± 79 | 163 to 166 | – | – | – | –
O=c1c(-c2ccc(Cl)cc2)c2ccccn2c(=O)n1CCCCN1CCC(c2noc3cc(F)ccc23)CC1 [Compound 6h, 4-(4-Chlorophenyl)-2-{4-[4-(6-fluoro-1,2-benzoxazol)-1-piperidyl]butyl}-pyrido[1,2-c]pyrimidine-1,3-dione] | 21 ± 1.5 | 310 ± 1 | 152 to 155 | – | – | – | –
O=c1c(-c2ccccc2)c2n(c(=O)n1CCCCN1CCC(c3noc4cc(F)ccc34)CC1)CCCC2 [Compound 7a, 4-Phenyl-2-{4-[4-(6-fluoro-1,2-benzoxazol-3-yl)-1-piperidyl]butyl}-5,6,7,8-tetrahydro-pyrido[1,2-c]pyrimidine-1,3-dione] | 27 ± 2 | 520 ± 58.8 | 110 to 113 | – | – | – | –
COc1ccccc1-c1c2n(c(=O)n(CCCCN3CCC(c4noc5cc(F)ccc45)CC3)c1=O)CCCC2 [Compound 7c, 4-(2-Methoxphenyl)-2-{4-[4-(6-fluoro-1,2-benzoxazol)-1-piperidyl]butyl}-5,6,7,8-tetrahydro-pyrido[1,2-c]pyrimidine-1,3-dione] | 62 ± 6 | 878 ± 88 | – | – | – | – | –
O=c1c(-c2ccccc2Cl)c2n(c(=O)n1CCCCN1CCC(c3noc4cc(F)ccc34)CC1)CCCC2 [Compound 7d, 4-(2-Chlorophenyl)-2-{4-[4-(6-fluoro-1,2-benzoxazol)-1-piperidyl]butyl}-5,6,7,8-tetrahydro-pyrido[1,2-c]pyrimidine-1,3-dione] | 71 ± 6.9 | 310 ± 34.5 | – | – | – | – | –
O=c1c(-c2ccc(Cl)cc2)c2n(c(=O)n1CCCCN1CCC(c3noc4cc(F)ccc34)CC1)CCCC2 [Compound 7h, 4-(4-Chlorophenyl)-2-{4-[4-(6-fluoro-1,2-benzoxazol)-1-piperidyl]butyl}-5,6,7,8-tetrahydro-pyrido[1,2-c]pyrimidine-1,3-dione] | 25 ± 3 | 290 ± 22.7 | 116 to 120 | – | – | – | –
CCCN(CCC)C1CCc2cccc(O)c2C1 (stereo not drawn) [Compound 8-OH-DPAT, 8-Hydroxy-2-(di-n-propylamino)tetralin hydro-bromide, reference compound] | – | – | – | −1.7 ± 0.2 ^b °C | −1.1 ± 0.2 ^b °C | −0.1 ± 0.1 | 0.3 ± 0.3

Source: PMC7956643, “Synthesis of Novel Pyrido[1,2-c]pyrimidine Derivatives with 6-Fluoro-3-(4-piperidynyl)-1,2-benzisoxazole Moiety as Potential SSRI and 5-HT1A Receptor Ligands” (International Journal of Molecular Sciences, 2021)
